Experimental data reported in ChEMBL document CHEMBL3526034 (Drug Metab Dispos, 2013).

How the values were obtained:
Cytochrome P450 3A4 = Cytochrome P450 3A4 (Homo sapiens, UniProt P08684); experiment: Drug level in supersomes expressing human recombinant CYP3A4 treated with [14C]DTG at 5 uM after 120 mins by radio-HPLC analysis; type: ADME; details: recombinant enzyme, 2 h
[1] = Drug level in human urine treated with parent drug [14C]DTG at 20 mg, po; type: ADME, tissue-based; details: in vivo
Liver microsome [2] = experiment: Drug level in UDPGA-fortified human liver microsomes treated with [14C]DTG at 16 uM treated for 4 hrs by radio-HPLC analysis; type: ADME
[3] = target: UDP-glucuronosyltransferase 1A9 (Homo sapiens, UniProt O60656); experiment: Drug level assessed as UDPGA-fortified human recombinant UGT1A9-mediated compound formation treated with [14C]DTG at 16 uM after 120 mins by radio-HPLC analysis; type: ADME; details: recombinant enzyme, 2 h
Chain of UDP-glucuronosyltransferase 1A9 (O60656 whole entry): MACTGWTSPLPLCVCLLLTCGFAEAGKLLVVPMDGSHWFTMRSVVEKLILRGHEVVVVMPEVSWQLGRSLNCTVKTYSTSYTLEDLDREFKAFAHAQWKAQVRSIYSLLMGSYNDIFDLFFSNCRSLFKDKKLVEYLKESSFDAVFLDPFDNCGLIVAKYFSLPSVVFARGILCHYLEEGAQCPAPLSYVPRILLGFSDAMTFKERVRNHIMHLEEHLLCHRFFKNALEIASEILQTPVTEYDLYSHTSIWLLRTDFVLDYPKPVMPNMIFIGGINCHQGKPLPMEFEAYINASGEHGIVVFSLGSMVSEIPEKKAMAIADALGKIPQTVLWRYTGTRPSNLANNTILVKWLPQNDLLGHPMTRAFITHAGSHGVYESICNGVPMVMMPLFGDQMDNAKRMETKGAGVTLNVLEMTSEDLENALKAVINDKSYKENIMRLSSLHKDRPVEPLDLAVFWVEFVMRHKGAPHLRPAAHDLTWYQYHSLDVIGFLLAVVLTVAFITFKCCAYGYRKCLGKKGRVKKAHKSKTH

Hepatocyte = experiment: Drug level in human hepatocytes treated with [14C]DTG at 50 uM after 4 to 20 hrs by radio-HPLC analysis; type: ADME, cell-based
[4] = target: UDP-glucuronosyltransferase 1A3 (Homo sapiens, UniProt P35503); experiment: Drug level assessed as UDPGA-fortified human recombinant UGT1A3-mediated compound formation treated with [14C]DTG at 16 uM after 120 mins by radio-HPLC analysis; type: ADME; details: recombinant enzyme, 2 h
Chain of UDP-glucuronosyltransferase 1A3 (P35503 whole entry): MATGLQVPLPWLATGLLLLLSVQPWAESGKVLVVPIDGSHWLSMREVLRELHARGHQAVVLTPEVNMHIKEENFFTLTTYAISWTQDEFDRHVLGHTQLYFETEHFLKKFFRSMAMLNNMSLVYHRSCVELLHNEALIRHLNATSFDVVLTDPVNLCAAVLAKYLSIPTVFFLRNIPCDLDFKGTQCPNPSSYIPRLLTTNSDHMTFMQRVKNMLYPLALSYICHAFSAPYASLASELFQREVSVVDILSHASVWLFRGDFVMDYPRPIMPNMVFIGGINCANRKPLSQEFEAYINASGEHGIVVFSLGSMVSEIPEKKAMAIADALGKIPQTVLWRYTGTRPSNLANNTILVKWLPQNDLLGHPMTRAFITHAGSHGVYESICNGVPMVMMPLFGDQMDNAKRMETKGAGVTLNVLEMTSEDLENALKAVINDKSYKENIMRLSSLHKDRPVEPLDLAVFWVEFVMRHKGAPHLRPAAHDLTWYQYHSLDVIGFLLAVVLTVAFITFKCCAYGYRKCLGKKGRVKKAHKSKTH

[5] = target: T1, UDP-glucuronosyltransferase 1A1 (Homo sapiens, UniProt P22309); experiment: Drug level assessed as UDPGA-fortified human recombinant UGT1A1-mediated compound formation treated with [14C]DTG at 16 uM after 120 mins by radio-HPLC analysis; type: ADME; details: recombinant enzyme, 2 h
T1 sequence (P22309 whole entry): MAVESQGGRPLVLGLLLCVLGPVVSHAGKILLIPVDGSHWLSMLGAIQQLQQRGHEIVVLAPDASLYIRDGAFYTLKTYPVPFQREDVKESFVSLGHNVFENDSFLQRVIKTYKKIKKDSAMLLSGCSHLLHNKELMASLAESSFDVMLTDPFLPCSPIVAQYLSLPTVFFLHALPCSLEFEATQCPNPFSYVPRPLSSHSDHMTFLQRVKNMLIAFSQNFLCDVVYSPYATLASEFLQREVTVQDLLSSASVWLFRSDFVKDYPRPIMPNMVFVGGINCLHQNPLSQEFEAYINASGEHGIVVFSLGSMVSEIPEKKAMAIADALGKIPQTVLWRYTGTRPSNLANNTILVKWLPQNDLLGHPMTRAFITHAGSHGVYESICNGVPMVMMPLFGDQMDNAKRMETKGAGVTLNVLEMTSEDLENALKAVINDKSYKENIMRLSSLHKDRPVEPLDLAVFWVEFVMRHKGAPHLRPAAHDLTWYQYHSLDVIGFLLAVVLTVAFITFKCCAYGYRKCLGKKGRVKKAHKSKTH

Liver microsome [6] = experiment: Drug level in human liver microsomes treated with [14C]DTG at 5 uM after 120 mins by radio-HPLC analysis; type: ADME; details: 2 h
[7] = substrate: C[C@@H]1CCO[C@H]2Cn3cc(C(=O)NCc4ccc(F)cc4F)c(=O)c(O)c3C(=O)N12; experiment: Drug metabolism in UDPGA-fortified human liver microsomes assessed as UGT1A1-mediated DTG glucuronide M2 ((2S,3S,4S,5R,6S)-6-((4R,12aS)-9-(2,4-difluorobenzylcarbamoyl)-4-methyl-6,8-dioxo-3,4,6,8,12,12a-hexahydro-2H-[1,3]oxazino[3,2-d]pyrido[1,2-a]pyrazin-7-yloxy)-3,4,5-trihydroxytetrahydro-2H-pyran-2-carboxylic acid) formation after 120 mins by radio-HPLC analysis; type: ADME
[8] = substrate: C[C@@H]1CCO[C@H]2Cn3cc(C(=O)NCc4ccc(F)cc4F)c(=O)c(O)c3C(=O)N12; experiment: Drug metabolism assessed as human recombinant UGT1A1-mediated DTG glucuronide M2 ((2S,3S,4S,5R,6S)-6-((4R,12aS)-9-(2,4-difluorobenzylcarbamoyl)-4-methyl-6,8-dioxo-3,4,6,8,12,12a-hexahydro-2H-[1,3]oxazino[3,2-d]pyrido[1,2-a]pyrazin-7-yloxy)-3,4,5-trihydroxytetrahydro-2H-pyran-2-carboxylic acid) formation after 120 mins by radio-HPLC analysis; type: ADME

Chain of Cytochrome P450 3A4 (P08684 whole entry): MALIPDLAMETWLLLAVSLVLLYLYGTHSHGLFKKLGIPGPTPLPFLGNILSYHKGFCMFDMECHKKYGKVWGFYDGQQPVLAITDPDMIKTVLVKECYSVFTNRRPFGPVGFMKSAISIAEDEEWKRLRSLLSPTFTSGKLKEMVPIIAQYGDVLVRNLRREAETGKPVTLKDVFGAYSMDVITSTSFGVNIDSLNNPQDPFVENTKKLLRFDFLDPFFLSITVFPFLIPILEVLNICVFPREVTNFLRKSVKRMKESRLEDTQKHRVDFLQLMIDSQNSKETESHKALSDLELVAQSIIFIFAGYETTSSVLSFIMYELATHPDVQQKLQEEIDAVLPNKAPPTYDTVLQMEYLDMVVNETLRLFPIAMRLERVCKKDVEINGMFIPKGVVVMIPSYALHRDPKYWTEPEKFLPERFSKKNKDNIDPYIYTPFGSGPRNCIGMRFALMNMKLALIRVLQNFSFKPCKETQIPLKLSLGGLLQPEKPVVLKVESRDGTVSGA

Question: Which Drug metabolism (Cytochrome P450 3A4) does the source give for `C[C@@H]1CCO[C@H]2Cn3cc(C(N)=O)c(=O)c(O)c3C(=O)N12` here?
Answer: metabolite_detected

Question: What about the Drug excretion [1] of the same molecule?
Answer: 3.6%

Question: Which results are given for `C[C@@H]1CCO[C@H]2Cn3cc(C(=O)NCc4ccc(F)cc4F)c(=O)c(O[C@@H]4O[C@H](C(=O)O)[C@@H](O)[C@H](O)[C@H]4O)c3C(=O)N12`?
Answer: Drug metabolism (Liver microsome [2]): metabolite_detected; Drug metabolism [3]: metabolite_detected; Drug metabolism (Hepatocyte): metabolite_detected; Drug metabolism [4]: metabolite_detected; Drug excretion [1]: 18.9%; Drug metabolism [5]: metabolite_detected

Question: Which Drug metabolism (Liver microsome [6]) does the source give for `C[C@@H]1CCO[C@H]2Cn3cc(C(=O)NC(O)c4ccc(F)cc4F)c(=O)c(O)c3C(=O)N12` (some centres not stated) here?
Answer: metabolite_detected

Question: And the Drug excretion [1]?
Answer: 3%

B1: UDP-glucuronosyltransferase 1A1 (Homo sapiens) (protein)
chain: MAVESQGGRPLVLGLLLCVLGPVVSHAGKILLIPVDGSHWLSMLGAIQQLQQRGHEIVVLAPDASLYIRDGAFYTLKTYPVPFQREDVKESFVSLGHNVFENDSFLQRVIKTYKKIKKDSAMLLSGCSHLLHNKELMASLAESSFDVMLTDPFLPCSPIVAQYLSLPTVFFLHALPCSLEFEATQCPNPFSYVPRPLSSHSDHMTFLQRVKNMLIAFSQNFLCDVVYSPYATLASEFLQREVTVQDLLSSASVWLFRSDFVKDYPRPIMPNMVFVGGINCLHQNPLSQEFEAYINASGEHGIVVFSLGSMVSEIPEKKAMAIADALGKIPQTVLWRYTGTRPSNLANNTILVKWLPQNDLLGHPMTRAFITHAGSHGVYESICNGVPMVMMPLFGDQMDNAKRMETKGAGVTLNVLEMTSEDLENALKAVINDKSYKENIMRLSSLHKDRPVEPLDLAVFWVEFVMRHKGAPHLRPAAHDLTWYQYHSLDVIGFLLAVVLTVAFITFKCCAYGYRKCLGKKGRVKKAHKSKTH
Question: Which Km [7] does the source give for B1 here?
Answer: 149 µM

Question: And the Km [8]?
Answer: 21 µM
